Data: patent publication US20230148258A1, “SPERMIDINE-SUPPLEMENTED FOOD PRODUCTS” (KALIN HEALTH LLC, priority 2020, published 2023)

Experiments:
[1] = NOAEL (No Observed Adverse Effect Level), Til et al. 1997
Excerpt: Food and Drug Administration GRAS Notice No. 889 Spermidine-Rich Wheat Germ Extract, the entirety of which is incorporated herein by reference. […] Til et al., Food and Chemical Toxicology 1997, v. 35, p. 337-348.

[2] = Til et al., Food and Chemical Toxicology 1997; cited from earlier work
[3] = animal models; 10 minutes after; cited from earlier work

SMILES | NOAEL expressed for a 70 kg person [1] [mg/day] | NOAEL (No Observed Adverse Effect Level) [2] [mg/kg body weight/day] | fraction of amount that reached the lumen found in the portal vein [3]
NCCCNCCCCNCCCN [spermine] | ~106 | 1.52 | Approximately 70%
NCCCCNCCCN [spermidine] | ~470 | 83 | Approximately 70%
